Experimental data published in patent US8119689B2, “Adjuvants on the basis of bisacyloxypropylcystene conjugates and derivatives and their uses in pharmaceutical compositions” (Helmholtz-Zentrum Fuer Infektionsforschung GmbH, priority 2005, dated 2012).
“Also recorded” adds a separate entry of the source.

How the values were obtained:
β-gal-specific IgA = test: β-gal-specific secretory IgA in lung and vaginal lavages of i.n. immunized mice; assay type: in vivo, BALB/c mice; details: i.n. immunization
Method: Differences were statistically significant at p<0.05 (*) with respect to mice receiving antigen alone. One representative out of four independent experiments is shown. SEM is indicated by vertical lines.
At day 38, mice were sacrificed and the final sampling was performed. Vaginal and lung ravages were obtained by flushing the organs with 1 ml of PBS supplemented with 50 mM EDTA, 0.1% BSA, and 10 mM PMSF. Lavages were then centrifuged to remove debris (10 min at 3000×g), and supernatant fluids were stored at −20° C. To determine the concentration of total IgA present in the lung and vaginal ravages, serial dilutions of the corresponding samples were incubated in microtiter plates that were previously coated with goat anti-mouse IgA (Sigma Chemie), as capture antibodies (100 μl/well). Serial dilutions of purified mouse IgA (Sigma Chemie) were used to generate a standard curve.

[1] = tested on: β-gal antigen-specific IgG isotypes; test: β-gal-specific IgG isotypes in sera of immunized mice (isotype ELISA); assay type: in vivo
Method: FIG. 8: FIG. 8 provides the analysis of beta-Gal specific IgG isotypes in sera of immunized mice. Anti-beta-Gal specific IgG isotypes of the groups immunized with PBS, (control) beta-Gal+either BPPcysGlyc4armPEG or BPPcysPEG (FIG. 8A) or BPPcysAda or Ada alone (FIG. 8B), or beta-Gal alone of mice immunized by the i.n. or s.c. route were determined by ELISA. Results are expressed as end point titers. IgG titers represent the mean of five animals per experimental group. Differences were statistically significant at p<0.05 (*) with respect to mice receiving antigen alone. One representative out of four independent experiments is shown. SEM is indicated by vertical lines.
Isotyp ELISA: 96-well Nunc-Immuno MaxiSorp assay plates (Nunc, Roskilde, Denmark) were coated with 100 μl of β-gal (Boehringer, Mannheim, Germany) at 5 μg/ml in 0.05 M carbonate buffer (pH 8.2) per well. Serial two-fold dilutions of sera or lavages in PBS with 1% BSA and 0.05% Tween 20 were added (100 μl/well), and plates incubated for 2 h at 37° C. After washing, biotin-conjugated rat anti-mouse IgG1 or IgG2a (Pharmingen, Hamburg, Germany) were added to determine IgG subclasses. Plates were incubated for an additional 1 h at 37° C. After four washes, 100 μl of peroxidase-conjugated streptavidin (Pharmingen) was added to cells and plates incubated at 37° C. for 30 min. After four washes, reactions were developed with ABTS in 0.1 M citrate-phosphate buffer (pH 4.35) containing 0.01% H2O2. To determine the concentration of IgG subclasses in serum, standard curves were obtained by coating the wells with an isotype-specific goat anti-mouse IgG, and then by incubating with purified mouse IgG1 or IgG2a antibodies (Dianova, Hamburg, Germany).

spleen cells = test: ELISPOT of cytokine producing spleen cells from vaccinated mice; assay type: in vivo
Method: FIG. 9: FIG. 9 provides the cytokine profile (IFNγ, IL-4 and IL-2) secreted by in vitro re-stimulated spleen cells from mice vaccinated with either BPPcysGlyc4armPEG or BPPcysMPEG (A), or BPPcysAda (B) and the model antigen β-gal (30 μg) alone. Results are expressed as spot forming units with subtracted background in the immunized groups with respect to the non-immunized control mice. Differences were statistically significant at p<0.05 (*) with respect to mice receiving antigen alone.
Experimental protocol: Spleens were removed and pooled for analysis of cellular immune responses. Cells were grown in RPMI 1640 supplemented with 10% fetal calf serum, 100 U/ml of penicillin, 50 μg/ml of streptomycin, 5×10^−5 M 2-mercaptoethanol and 1 mM L-glutamine (GIBCO BRL, Karlsruhe, Germany) and maintained at 37° C. in a humidified 5% CO2 atmosphere. […] Coat ELISPOT plate with 100 μl/well of purified capture antibody at 10 μg/ml in coating buffer, incubate at 4° C. overnight. After 6× washing steps, the plates were blocked with 200 μl/well of complete RPMI-1640 at room temperature for 1 hour. The activated cells were seeded at 100 μl per well and incubate at 37° C., in a 5% CO2 humidified incubator for 24 hours or 48 hours. After 5× washing steps with washing buffer and 1× step with distilled water, 100 μl/well of the biotinylated detection antibody with a concentration of 1 μg/ml in Assay Diluent was added and incubated at room temperature for 2 hrs. After further washing steps 100 μl/well of the AV-HRP at 1/1000 dilution in Assay Diluent was added and incubated at room temperature for 30 minutes. After further washing steps 100 μl/well of AEC Substrate Solution was added and developed at room temperature for 20-60 minutes until visible spots appeared. After washing steps with (3×) with 200 μl/well distilled water, the plates were air-dried and analyzed by counting the spots by an ELISPOT reader. Each concentration was tested in triplicates.

SMILES: CCCCCCCCCCCCCCCC(=O)OCC(CSC[C@H](N)C(=O)N[C@H]1[C@@H](O)[C@H](n2cnc3c(N)ncnc32)O[C@@H]1CO)OC(=O)CCCCCCCCCCCCCCC (single isomer, unassigned) [BPPcysAda, S-[2,3-bis(palmitoyloxy)-(2S or 2R)-propyl]-L-cysteinylcarboxy-3′Amino-3′-deoxyadenosine]
- β-gal-specific IgA in vaginal lavages (β-gal-specific IgA; day 38): significantly higher levels
- β-gal-specific IgA in lung lavages (BAL) (β-gal-specific IgA; day 38, vs antigen alone): significantly higher levels
- antigen specific antibodies of the IgG1 subtype, intranasal ([1]; intranasal administration): significantly enhances; also recorded: strongly increased
- antigen specific antibodies of the IgG2a isotype, intranasal ([1]; intranasal administration): significantly enhances; also recorded: strongly increased
- expression of the IgG1 isotype, subcutaneous ([1]; subcutaneous administration): strongly increased
- expression of the IgG2a isotype, subcutaneous ([1]; subcutaneous administration): strongly increased
- splenic IL-2 producing cells (spleen cells; i.n. and s.c. route): enhanced expression
- splenic IL-4 producing cells (spleen cells; i.n. and s.c. route): enhanced expression
- number of splenic IFNγ producing cells (spleen cells; restimulation with MHC class I-restricted β-Galactosidase peptide): increment
